Consider ten compounds from patent US20050203119A1, “Dihydropyridine compounds for treating or preventing metabolic disorders” (priority 2003, published 2005).

As a reminder, the EC50 is the concentration at which the effect is half-maximal.

Experiment [1] relates to primary rat hepatocytes. Nature of the experiment: In vitro cytotoxicity study on primary rat hepatocytes (MTS). The format is cell-based. As to conditions: Hepatocyte, 20 hours treatment with 0.4, 2, 10 and 50 μM, absorbance at 490 nm, read-out: Average EC50 (hepatocytes from at least 2 rats). The procedure:
Male SD rats having body weights of approximately 200 g were used for the study. Hepatocytes were freshly isolated and seeded with 15,000 cells/well in 96 wells coated with 100 μl collagen. The hepatocytes were cultured for 3-4 hours with HCM Bulletkit medium (Clonetics #CC-3198) then treated with 0.4 μM, 2 μM, 10 μM and 50 μM of a test compound for 20 hours. Flepatocytes were then incubated with MTS reagent (Promega #G5421) for 2-3 hours and absorbance in each well at […] was measured to determine the number of living cells in each well (the absorbance at 490 nm is directly proportional to the number of living cells in the well). The EC50 for each test compound was calculated with the Excel Xlfit wizard program based on the optical density values compared with vehicle treated cells.

For experiment [2], the system named is NIDDM male mice (C57BLKS/J-m+/+Lepr db). The experiment can be described thus: 7 day baseline glucose test in db/db mice (Example 119). In kind it is in vivo, mouse. Conditions: for Serum Glucose % Pre-Treatment Baseline: 3 hours after dose. The procedure: Non-insulin dependent diabetic mellitus (NIDDM) male mice (C57BLKS/J-m+/+Lepr db), weighing 50±5 g and 9-10-week old, were used. The animals were housed in Individually Ventilated Cages Racks (IVC Racks) throughout the experiment and all animals were allowed free access to sterilized Lab chow and sterilized distilled water. Compounds 39, 41 and 64 at 50 mg/kg as well as vehicle (0.5% Methylcellulose) were administered orally once daily for 7 consecutive days to test animals after the first blood sampling (pre-treatment). The post-treatment blood samples were withdrawn from the orbital sinus at 3 hours after administration of daily dose on day 3 and on day 7. Serum glucose levels in the pre- and post-treatment were determined by enzymatic (Mutaratase-GOD) methods. Post-treatment serum glucose values were expressed in percentage of respective pre-treatment values. Percentage reductions were expressed in percentage of pre-treatment values of test substance relative to percentage of pre-treatment values of vehicle. All percentages were calculated and unpaired; Student's t test was then applied to establish significant difference between the test compound-treated and vehicle control groups. Differences are considered significant at P<0.05.

The mark [3] stands for this setting: Day 3, 50 mg/kg orally once daily.
Setting [4] is: Day 7, 50 mg/kg orally once daily.

On to `CCOC(=O)C1=C(COCCN)NC2=C(C(=O)CC(C)(C)C2)[C@H]1c1cccnc1` [39 R-enantiomer, (+)-(R)-2-(2-Amino-ethoxymethyl)-7,7-dimethyl-5-oxo-4-pyridin-3-yl-1,4,5,6,7,8-hexahydro-quinoline-3-carboxylic acid ethyl ester], for which the EC50 in experiment [1] was greater than 50 µM. The same measure, in the same setting: for `CCOC(=O)C1=C(COCCN)NC2=C(C(=O)CC(C)(C)C2)C1c1ccccc1F` (centres unmarked) [Compound 12, 2-(2-amino-ethoxymethyl)-4-(2-fluoro-phenyl)-7,7-dimethyl-5-oxo-1,4,5,6,7,8-hexahydro-quinoline-3-carboxylic acid ethyl ester] the value was greater than 50 µM. As for `CCOC(=O)C1=C(COCCN)NC2=C(C(=O)CC(C)(C)C2)C1c1ccccc1OC` (centres unmarked) [Compound 16, 2-(2-Amino-ethoxymethyl)-4-(2-methoxy-phenyl)-7,7-dimethyl-5-oxo-1,4,5,6,7,8-hexahydro-quinoline-3-carboxylic acid ethyl ester], in experiment [1], the EC50 was greater than 50 µM.

As to `CC1(C)CC(=O)C2=C(C1)NC(COCCN)=C(C#N)C2c1ccccc1Cl` (centres unmarked) [Compound 41, 2-(2-Amino-ethoxymethyl)-4-(2-chloro-phenyl)-7,7-dimethyl-5-oxo-1,4,5,6,7,8-hexahydro-quinoline-3-carbonitrile], the “serum glucose % Reduction relative to vehicle” value in experiment [2] (setting [3]) is recorded as “(2) %”; in experiment [2] (setting [4]) it was “(6) %”. Further, the figures for the “Serum Glucose % Pre-Treatment Baseline” value in experiment [2] (setting [3]) and in experiment [2] (setting [4]) were 93.3% and 94.1%, respectively.

Consider `CCOC(=O)C1=C(COCCN)NC2=C(C(=O)CC(C)(C)C2)C1c1ccccc1O` (centres unmarked) [Compound 64, 2-(2-Amino-ethoxymethyl)-4-(2-hydroxy-phenyl)-7,7-dimethyl-5-oxo-1,4,5,6,7,8-hexahydro-quinoline-3-carboxylic acid ethyl ester], for which, in experiment [2] (setting [3]), the “serum glucose % Reduction relative to vehicle” value is reported as “(10) %” and the “Serum Glucose % Pre-Treatment Baseline” value was 85.9%. Besides, in experiment [2] (setting [4]), the “serum glucose % Reduction relative to vehicle” value is given as “(12) %” and the “Serum Glucose % Pre-Treatment Baseline” value was found to be 88.6%. In addition, the EC50 in experiment [1] was greater than 50 µM. Consider `CCOC(=O)C1=C(COCCN)N(C)C2=C(C(=O)CC(C)(C)C2)C1c1cccnc1` (centres unmarked) [Compound 66, 2-(2-Amino-ethoxymethyl)-1,7,7-trimethyl-5-oxo-4-pyridin-3-yl-1,4,5,6,7,8-hexahydro-quinoline-3-carboxylic acid ethyl ester], for which the EC50 in experiment [1] is greater than 50 µM. For `CCOC(=O)C1=C(COCCN)NC2=C(C(=O)CC(C)(C)C2)C1c1ccco1` (centres unmarked) [Compound 96, 2-(2-Amino-ethoxymethyl)-4-furan-2-yl-7,7-dimethyl-5-oxo-1,4,5,6,7,8-hexahydro-quinoline-3-carboxylic acid ethyl ester], the EC50 in experiment [1] was greater than 50 µM. On the same count and under the same terms, for `CCOC(=O)C1=C(C)NC2=C(C(=O)CC(C)(C)C2)C1c1cccnc1` (centres unmarked) [Compound 202, 2,7,7-Trimethyl-4-(pyrid-3-yl)-5-oxo-1,4,5,6,7,8-hexahydro-quinoline-3-carboxylic acid ethyl ester] the value was greater than 50 µM. Consider `CCOC(=O)C1=C(COCCN)NC2=C(C(=O)CC(C)(C)C2)C1c1ccc(C)o1` (centres unmarked) [Compound 206, 2-(2-Amino-ethoxymethyl)-7,7-dimethyl-4-(5-methyl-furan-2-yl)-5-oxo-1,4,5,6,7,8-hexahydro-quinoline-3-carboxylic acid ethyl ester], for which the EC50 in experiment [1] was greater than 50 µM.

For the compound `CC1=C(C#N)C(C2CC2)C2=C(CC(C)(C)CC2=O)N1` (centres unmarked) [Compound 222, 2,7,7-Trimethyl-4-cyclopropyl-5-oxo-1,4,5,6,7,8-hexahydro-quinoline-3-carbonitrile], the EC50 in experiment [1] was greater than 50 µM.
